{
  "source": "PubChem BioAssay (NCI)",
  "assay_in_all_cases": "inhibition of tumour cell growth, NCI panel, 48 h",
  "key": {"[1]": {"tested_on": "786-0 renal"}, "[2]": {"tested_on": "A549 NSCLC"}, "[3]": {"tested_on": "ACHN renal"}, "[4]": {"tested_on": "COLO 205 colon"}, "[5]": {"tested_on": "DU-145 prostate"}, "[6]": {"tested_on": "EKVX NSCLC"}, "[7]": {"tested_on": "HCT-116 colon"}, "[8]": {"tested_on": "HCT-15 colon"}, "[9]": {"tested_on": "HOP-62 NSCLC"}, "[10]": {"tested_on": "HS 578T breast"}, "[11]": {"tested_on": "HT29 colon"}, "[12]": {"tested_on": "IGROV1 ovarian"}, "[13]": {"tested_on": "LOX IMVI melanoma"}, "[14]": {"tested_on": "M14 melanoma"}, "[15]": {"tested_on": "MALME-3M melanoma"}, "[16]": {"tested_on": "MDA-MB-231 breast"}, "[17]": {"tested_on": "MDA-N"}, "[18]": {"tested_on": "MOLT-4 leukemia"}, "[19]": {"tested_on": "NCI-H460 lung"}, "[20]": {"tested_on": "NCI-H522 lung"}, "[21]": {"tested_on": "NCI/ADR-RES ovarian"}, "[22]": {"tested_on": "OVCAR-3 ovarian"}, "[23]": {"tested_on": "OVCAR-4 ovarian"}, "[24]": {"tested_on": "OVCAR-8 ovarian"}, "[25]": {"tested_on": "PC-3 prostate"}, "[26]": {"tested_on": "SF-268 CNS"}, "[27]": {"tested_on": "SF-295 CNS"}, "[28]": {"tested_on": "SK-MEL-2 melanoma"}, "[29]": {"tested_on": "SK-MEL-5 melanoma"}, "[30]": {"tested_on": "SK-OV-3 ovarian"}, "[31]": {"tested_on": "SN12C renal"}, "[32]": {"tested_on": "SNB-75 CNS"}, "[33]": {"tested_on": "SR leukemia"}, "[34]": {"tested_on": "SW-620 colon"}, "[35]": {"tested_on": "T-47D breast"}, "[36]": {"tested_on": "UACC-257 melanoma"}, "[37]": {"tested_on": "UACC-62 melanoma"}, "[38]": {"tested_on": "A498 renal"}, "[39]": {"tested_on": "CAKI-1 renal"}, "[40]": {"tested_on": "HCC-2998 colon"}, "[41]": {"tested_on": "HL-60(TB) leukemia"}, "[42]": {"tested_on": "HOP-92 NSCLC"}, "[43]": {"tested_on": "K-562 leukemia"}, "[44]": {"tested_on": "KM12 colon"}, "[45]": {"tested_on": "MCF7 breast"}, "[46]": {"tested_on": "MDA-MB-435"}, "[47]": {"tested_on": "OVCAR-5 ovarian"}, "[48]": {"tested_on": "RPMI-8226 leukemia"}, "[49]": {"tested_on": "RXF 393 renal"}, "[50]": {"tested_on": "SF-539 CNS"}, "[51]": {"tested_on": "SK-MEL-28 melanoma"}, "[52]": {"tested_on": "SNB-19 CNS"}, "[53]": {"tested_on": "U251 CNS"}, "[54]": {"tested_on": "UO-31 renal"}},
  "note": "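Where inhibition never reached the appropriate level, the endpoint shown equals the highest concentration tested. Otherwise, values were interpolated linearly from a five-concentration, 48-hour dose response in 96-well plates. At the TGI there is no net growth.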",
  "data": [
    {"smiles": "CN(Cc1cnc2nc(N)nc(N)c2n1)c1ccc(C(=O)NC(CCC(=O)NCC(P(=O)(O)O)P(=O)(O)O)C(=O)O)cc1", "note": "(stereo unspecified)", "values": [
      {"measurement": "TGI", "setting": "[1]", "value": "> 100", "unit": "µM"},
      {"measurement": "TGI", "setting": "[2]", "value": "> 100", "unit": "µM"},
      {"measurement": "TGI", "setting": "[3]", "value": "> 100", "unit": "µM"},
      {"measurement": "TGI", "setting": "[4]", "value": "> 100", "unit": "µM"},
      {"measurement": "TGI", "setting": "[5]", "value": "> 100", "unit": "µM"},
      {"measurement": "TGI", "setting": "[6]", "value": "> 100", "unit": "µM"},
      {"measurement": "TGI", "setting": "[7]", "value": "> 100", "unit": "µM"},
      {"measurement": "TGI", "setting": "[8]", "value": "> 100", "unit": "µM"},
      {"measurement": "TGI", "setting": "[9]", "value": 68, "unit": "µM"},
      {"measurement": "TGI", "setting": "[10]", "value": "> 100", "unit": "µM"},
      {"measurement": "TGI", "setting": "[11]", "value": "> 100", "unit": "µM"},
      {"measurement": "TGI", "setting": "[12]", "value": "> 100", "unit": "µM"},
      {"measurement": "TGI", "setting": "[13]", "value": "> 100", "unit": "µM"},
      {"measurement": "TGI", "setting": "[14]", "value": "> 100", "unit": "µM"},
      {"measurement": "TGI", "setting": "[15]", "value": "> 100", "unit": "µM"},
      {"measurement": "TGI", "setting": "[16]", "value": "> 100", "unit": "µM"},
      {"measurement": "TGI", "setting": "[17]", "value": "> 100", "unit": "µM"},
      {"measurement": "TGI", "setting": "[18]", "value": "> 100", "unit": "µM"},
      {"measurement": "TGI", "setting": "[19]", "value": "> 100", "unit": "µM"},
      {"measurement": "TGI", "setting": "[20]", "value": "> 100", "unit": "µM"},
      {"measurement": "TGI", "setting": "[21]", "value": "> 100", "unit": "µM"},
      {"measurement": "TGI", "setting": "[22]", "value": "> 100", "unit": "µM"},
      {"measurement": "TGI", "setting": "[23]", "value": "> 100", "unit": "µM"},
      {"measurement": "TGI", "setting": "[24]", "value": "> 100", "unit": "µM"},
      {"measurement": "TGI", "setting": "[25]", "value": "> 100", "unit": "µM"},
      {"measurement": "TGI", "setting": "[26]", "value": "> 100", "unit": "µM"},
      {"measurement": "TGI", "setting": "[27]", "value": "> 100", "unit": "µM"},
      {"measurement": "TGI", "setting": "[28]", "value": "> 100", "unit": "µM"},
      {"measurement": "TGI", "setting": "[29]", "value": "> 100", "unit": "µM"},
      {"measurement": "TGI", "setting": "[30]", "value": "> 100", "unit": "µM"},
      {"measurement": "TGI", "setting": "[31]", "value": "> 100", "unit": "µM"},
      {"measurement": "TGI", "setting": "[32]", "value": "> 100", "unit": "µM"},
      {"measurement": "TGI", "setting": "[33]", "value": "> 100", "unit": "µM"},
      {"measurement": "TGI", "setting": "[34]", "value": "> 100", "unit": "µM"},
      {"measurement": "TGI", "setting": "[35]", "value": "> 100", "unit": "µM"},
      {"measurement": "TGI", "setting": "[36]", "value": "> 100", "unit": "µM"},
      {"measurement": "TGI", "setting": "[37]", "value": "> 100", "unit": "µM"}
    ]},
    {"smiles": "COc1c2cc(C(C)(C)C)cc1Cc1cccc(c1O)Cc1cc(C(C)(C)C)cc(c1OC)Cc1cccc(c1O)Cc1cc(C(C)(C)C)cc(c1OC)Cc1cccc(c1O)C2", "values": [
      {"measurement": "TGI", "setting": "[1]", "value": "> 100", "unit": "µM"},
      {"measurement": "TGI", "setting": "[38]", "value": "> 100", "unit": "µM"},
      {"measurement": "TGI", "setting": "[2]", "value": "> 100", "unit": "µM"},
      {"measurement": "TGI", "setting": "[3]", "value": "> 100", "unit": "µM"},
      {"measurement": "TGI", "setting": "[39]", "value": "> 100", "unit": "µM"},
      {"measurement": "TGI", "setting": "[4]", "value": "> 100", "unit": "µM"},
      {"measurement": "TGI", "setting": "[5]", "value": "> 100", "unit": "µM"},
      {"measurement": "TGI", "setting": "[6]", "value": "> 100", "unit": "µM"},
      {"measurement": "TGI", "setting": "[40]", "value": "> 100", "unit": "µM"},
      {"measurement": "TGI", "setting": "[7]", "value": "> 100", "unit": "µM"},
      {"measurement": "TGI", "setting": "[8]", "value": "> 100", "unit": "µM"},
      {"measurement": "TGI", "setting": "[41]", "value": "> 100", "unit": "µM"},
      {"measurement": "TGI", "setting": "[9]", "value": "> 100", "unit": "µM"},
      {"measurement": "TGI", "setting": "[42]", "value": "> 100", "unit": "µM"},
      {"measurement": "TGI", "setting": "[11]", "value": "> 100", "unit": "µM"},
      {"measurement": "TGI", "setting": "[43]", "value": "> 100", "unit": "µM"},
      {"measurement": "TGI", "setting": "[44]", "value": "> 100", "unit": "µM"},
      {"measurement": "TGI", "setting": "[14]", "value": "> 100", "unit": "µM"},
      {"measurement": "TGI", "setting": "[15]", "value": "> 100", "unit": "µM"},
      {"measurement": "TGI", "setting": "[45]", "value": "> 100", "unit": "µM"},
      {"measurement": "TGI", "setting": "[16]", "value": "> 100", "unit": "µM"},
      {"measurement": "TGI", "setting": "[46]", "value": "> 100", "unit": "µM"},
      {"measurement": "TGI", "setting": "[17]", "value": "> 100", "unit": "µM"},
      {"measurement": "TGI", "setting": "[18]", "value": "> 100", "unit": "µM"},
      {"measurement": "TGI", "setting": "[19]", "value": "> 100", "unit": "µM"},
      {"measurement": "TGI", "setting": "[20]", "value": "> 100", "unit": "µM"},
      {"measurement": "TGI", "setting": "[21]", "value": "> 100", "unit": "µM"},
      {"measurement": "TGI", "setting": "[22]", "value": "> 100", "unit": "µM"},
      {"measurement": "TGI", "setting": "[47]", "value": "> 100", "unit": "µM"},
      {"measurement": "TGI", "setting": "[24]", "value": "> 100", "unit": "µM"},
      {"measurement": "TGI", "setting": "[25]", "value": "> 100", "unit": "µM"},
      {"measurement": "TGI", "setting": "[48]", "value": "> 100", "unit": "µM"},
      {"measurement": "TGI", "setting": "[49]", "value": "> 100", "unit": "µM"},
      {"measurement": "TGI", "setting": "[26]", "value": "> 100", "unit": "µM"},
      {"measurement": "TGI", "setting": "[27]", "value": "> 100", "unit": "µM"},
      {"measurement": "TGI", "setting": "[50]", "value": "> 100", "unit": "µM"},
      {"measurement": "TGI", "setting": "[28]", "value": "> 100", "unit": "µM"},
      {"measurement": "TGI", "setting": "[51]", "value": "> 100", "unit": "µM"},
      {"measurement": "TGI", "setting": "[29]", "value": "> 100", "unit": "µM"},
      {"measurement": "TGI", "setting": "[31]", "value": "> 100", "unit": "µM"},
      {"measurement": "TGI", "setting": "[52]", "value": "> 100", "unit": "µM"},
      {"measurement": "TGI", "setting": "[32]", "value": "> 100", "unit": "µM"},
      {"measurement": "TGI", "setting": "[33]", "value": "> 100", "unit": "µM"},
      {"measurement": "TGI", "setting": "[34]", "value": "> 100", "unit": "µM"},
      {"measurement": "TGI", "setting": "[35]", "value": "> 100", "unit": "µM"},
      {"measurement": "TGI", "setting": "[53]", "value": "> 100", "unit": "µM"},
      {"measurement": "TGI", "setting": "[36]", "value": "> 100", "unit": "µM"},
      {"measurement": "TGI", "setting": "[37]", "value": "> 100", "unit": "µM"},
      {"measurement": "TGI", "setting": "[54]", "value": "> 100", "unit": "µM"}
    ]}
  ]
}
